The values that follow come from US7501523B2, “Method for preparing cucurbiturils” (NewSouth Innovations Pty Limited, priority 2003, dated 2009).

The nature of one series: solubility in water. The class given is physicochemical. The settings on record: compared with unsubstituted cucurbit[6]uril.
Series [1] can be described thus: association constant of dioxane in the cucurbituril. To be noted: relative to tetramethylcucurbit[2,4]uril. It counts as binding.
A short description of series [2]: association constant of methane in the cucurbituril. It counts as binding. To be noted: relative to decamethylcucurbit[5]uril.

α, δ-tetramethylcucurbit[2,4]uril: the solubility in water result in the series “solubility in water” was “greater solubility in water than unsubstituted cucurbit[6]uril”.
In the case of unsubstituted cucurbit[6]uril, the “association constant of dioxane” value in series [1] is on record as “two times higher”.
Take dimethylcucurbit[1,4]uril: the “association constant of methane” value in series [2] is recorded as “three times higher”.
